Earlier results on two compounds are cited in patent publication US9060510B2 (priority 2005, dated 2015).

Where two headings read alike, the source gives them in different places.

In the case of `CCN(Cc1ccc(Cl)nc1)/C(=C/[N+](=O)[O-])NC` [Nitempyram, (E)-N-(6-chloro-3-pyridylmethyl)-N-ethyl-N′-methyl-2-nitrovinylidenediamine], the water-solubility (at pH 7.0, 20° C.) is over 590 mg/mL.

As to “(E)-1-(2-chloro-1,3-thiazol-5-yl)-3-methyl-2-nitroguanidine [Clothianidin]”, where the note is “at pH 4.0, 20° C.”, the water-solubility is 0.304 mg/mL.
